From ChEMBL document CHEMBL1140073, “6-Azido-7-nitro-1,4-dihydroquinoxaline-2,3-dione (ANQX) forms an irreversible bond to the active site of the GluR2 AMPA receptor” (J Med Chem, 2008)

Molecular target: Glutamate receptor 2 (Homo sapiens, UniProt P42262)
Assay: Inhibition of GluR2 receptor

Sequence of Glutamate receptor 2 (P42262 whole entry): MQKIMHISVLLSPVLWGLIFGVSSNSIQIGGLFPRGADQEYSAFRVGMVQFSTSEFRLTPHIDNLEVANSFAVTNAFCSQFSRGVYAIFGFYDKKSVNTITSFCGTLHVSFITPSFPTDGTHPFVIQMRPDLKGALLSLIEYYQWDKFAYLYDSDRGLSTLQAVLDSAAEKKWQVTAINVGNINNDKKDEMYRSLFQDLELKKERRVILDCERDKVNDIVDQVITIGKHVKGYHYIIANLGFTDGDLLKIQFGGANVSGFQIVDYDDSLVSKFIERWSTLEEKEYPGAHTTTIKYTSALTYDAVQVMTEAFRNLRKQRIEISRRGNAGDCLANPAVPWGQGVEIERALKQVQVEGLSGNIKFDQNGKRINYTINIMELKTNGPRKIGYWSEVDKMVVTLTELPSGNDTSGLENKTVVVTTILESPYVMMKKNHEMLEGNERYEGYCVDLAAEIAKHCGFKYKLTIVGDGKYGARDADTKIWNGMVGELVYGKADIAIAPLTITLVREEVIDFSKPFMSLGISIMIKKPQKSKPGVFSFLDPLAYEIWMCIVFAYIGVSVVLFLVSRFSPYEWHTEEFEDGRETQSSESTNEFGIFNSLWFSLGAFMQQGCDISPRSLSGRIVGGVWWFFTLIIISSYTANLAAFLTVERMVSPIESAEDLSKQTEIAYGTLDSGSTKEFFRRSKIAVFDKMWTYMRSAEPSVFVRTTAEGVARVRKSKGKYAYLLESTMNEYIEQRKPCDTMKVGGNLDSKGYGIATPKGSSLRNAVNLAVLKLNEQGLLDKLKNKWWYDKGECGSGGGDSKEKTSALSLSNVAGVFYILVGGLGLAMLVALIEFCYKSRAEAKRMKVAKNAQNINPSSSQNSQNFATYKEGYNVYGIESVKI

| IC50 [µM] | SMILES |
| --- | --- |
| 7.6 | O=c1[nH]c2cc3no[n+]([O-])c3cc2[nH]c1=O |
| 1 | [N-]=[N+]=Nc1cc2[nH]c(=O)c(=O)[nH]c2cc1[N+](=O)[O-] |
